Counter-ions that a name gives are not always drawn. Like-named read-outs stand apart in the source and are kept apart here.
Legend:
[1] = cited from earlier work
rat synaptoneurosomes = settings: cited from earlier work
[2] = system: GABA-induced chloride currents; settings: electrophysiological experiments; cited from earlier work
[3] = system: GABA receptor channel complex; settings: cited from earlier work
[4] = system: GABA receptor/chloride ionophore complex; experiment: Potentiation of GABA currents by tricyclic analogs (patch clamp, cultured hippocampal neurons); format: cell-based, albino rat; settings: 1 μM GABA, mean ± SEM (N)
Experimental: (§1) Under halothane anesthesia, 1 day old albino rat pups are sacrificed by rapid decapitation and the hippocampi are dissected and dissociated with papain (1 mg/ml in oxygenated L-15 media for 30 min at 35° C.) and mechanical trituration (18). Cells are plated on collagen coated-culture dishes at a density of 300,000 cells/ml. The growth media consists of Eagles Minimal Essential Media (MEM) supplemented with 5% fetal calf serum, 5% horse serum, 17 mM glucose, 0.4 mM glutamine, 50 U/ml penicillin and 50 μg/ml streptomycin. After three days in culture cells are treated with 10 μM cytosine arabinoside (ARA-C) to suppress glial growth. Cells are subsequently fed with fresh media once per week.
(§2) For recording purposes the growth media is replaced with a solution containing (in mM): 140 NaCl, 5 KCl, 2 CaCl2, 1 MgCl2, 10 glucose, 10 HEPES, 0.001 tetrodotoxin, pH=7.3. Neurons are studied using patch clamp recording techniques (12) with pipettes containing (in mM): 145 CsCl, 5 BAPTA, 5 NaCl, 0.5 CaCl2, 2 MgATP, 10 HEPES, pH=7.3. This CsCl intracellular solution sets the Cl^-1 equilibrium potential (Ecl) at 0 mV (i.e. symmetric transmembrane concentrations of Cl^-). This allows reliable recording of Cl^-1 currents without concern for shifts in transmembrane Cl^-1 concentration which can alter GABA responses during longer agonist exposures (1). […]

[5] = system: GABA receptor/chloride ionophore complex; experiment: Direct Cl^- current activation (patch clamp, cultured hippocampal neurons); format: cell-based, albino rat; settings: numeric bound
Experimental: as §1, §2

[6] = system: recombinant human GABAA receptors; settings: single channel recordings; cited from earlier work
benzodiazepine receptors = settings: several studies; cited from earlier work
[7] = two different animal models of anxiety; cited from earlier work
[8] = rats; cited from earlier work
[9] = system: GABA-mediated neuronal inhibition; settings: cited from earlier work
GABAA receptors [10] = settings: cultured hippocampal neurons; cited from earlier work
[11] = system: GABA-mediated inhibitory synaptic responses; settings: olfactory cortical slices; cited from earlier work
GABA-gated channels = settings: fluctuation analysis; cited from earlier work
GABAA receptors [12] = settings: cited from earlier work
GABA currents = settings: various CNS neurons, cited from earlier work
picrotoxin site = settings: cited from earlier work
GABAA channels = settings: single channel; cited from earlier work
[13] = in vivo; cited from earlier work

CC(=O)[C@H]1CC[C@H]2[C@@H]3CC[C@@H]4C[C@H](O)CC[C@]4(C)[C@H]3CC[C@]12C [3α-hydroxy-5β-pregnan-20-one]
activity in vivo as steroid anesthetics [1]: active in vivo as steroid anesthetics
potentiation of muscimol-stimulated chloride uptake (rat synaptoneurosomes): potentiators of muscimol-stimulated chloride uptake
potentiation of GABA-induced chloride currents [2]: potentiators of GABA-induced chloride currents

C[C@]12CCC(=O)C=C1CC[C@@H]1[C@@H]2[C@@H](O)C[C@@]2(C)[C@H]1CC[C@]2(O)C(=O)CO [Cortisol]
GABA-induced chloride currents ([3]; nanomolar concentrations): inhibits these same currents
GABA-induced chloride currents ([3]; picomolar concentrations): augments GABA-induced chloride currents

CC(=O)[C@H]1CC[C@H]2[C@@H]3CC[C@H]4C[C@H](O)CC[C@]4(C)[C@H]3CC[C@]12C [Example 3α-OH-DHP, 3α-hydroxy-5α-pregnan-20-one]
Potentiation of GABA currents, 0.1 μM ([4]; 0.1 μM compound): 110 ± 5% of control response to
Potentiation of GABA currents, 1.0 μM ([4]; 1.0 μM compound): 195 ±16% of control response to
Concentration for Direct Cl^- Current Activation [5]: > 1 µM
channel open times and burst lengths / opening frequency [6]: increases the frequency of channel opening without altering the open times
activity in vivo as steroid anesthetics [1]: active in vivo as steroid anesthetics
potentiation of muscimol-stimulated chloride uptake (rat synaptoneurosomes): potentiators of muscimol-stimulated chloride uptake
potentiation of GABA-induced chloride currents [2]: potentiators of GABA-induced chloride currents

CCOC(=O)c1ncn2c1CN(C)C(=O)c1cc(F)ccc1-2 [R015-1788 (flumazenil)]
effect on steroid responses (benzodiazepine receptors): failed to find an effect

C[C@]12CC[C@@H](O)C[C@@H]1CC[C@@H]1[C@@H]2CC[C@]2(C)[C@@H](C(=O)CO)CC[C@@H]12 [THDOC, 5α-pregnane-3α, 21-diol-20-one]
anxiolytic and sedative activity [7]: both anxiolytic and sedative activity
sleep induction and nonREM sleep [8]: induce sleep and increase nonREM sleep
GABA-mediated neuronal inhibition [9]: augment GABA-mediated neuronal inhibition

CC(=O)[C@H]1CC[C@H]2[C@@H]3CC[C@H]4C[C@H](O)CC[C@]4(C)[C@H]3C(=O)C[C@]12C [alphaxalone]
peak IPSC amplitude or rise time (GABAA receptors [10]): without change in peak IPSC amplitude or rise time
prolongation of IPSC decay (GABAA receptors [10]): 5-8 fold
time course of GABA-mediated inhibitory synaptic responses [11]: prolongs the time course of GABA-mediated inhibitory synaptic responses
burst length of GABA-gated channels (GABA-gated channels): significantly prolongs the burst length of GABA-gated channels
single channel conductance (GABA-gated channels): without changing the single channel conductance

CN1CCc2cc3c(cc2[C@H]1[C@@H]1OC(=O)c2c1ccc1c2OCO1)OCO3 [bicuculline]
block of steroid gated currents (GABAA receptors [12]): blocked

C[C@]12CC[C@H](OS(=O)(=O)O)CC1=CC[C@@H]1[C@@H]2CC[C@]2(C)C(=O)CC[C@@H]12 [dehydroepiandrosterone sulfate (DHEAS), dehydroepiandrosterone sulfate]
GABA currents (GABA currents): inhibit GABA currents
TBPS binding (picrotoxin site): not DHEAS

CCCC(C)C1(CC)C(=O)NC(=O)NC1=O (stereo not shown) [pentobarbital]
channel open times and burst lengths / opening frequency [6]: prolongs channel open times and burst lengths

CC(=O)C1CCC2C3CC=C4CC(OS(=O)(=O)O)CCC4(C)C3CCC12C (stereo not shown) [pregnenolone sulfate]
GABA currents (GABA currents): inhibit GABA-induced chloride currents
GABA currents (GABA currents; listed as pregnenolone sulfate (PS)): inhibit GABA currents
TBPS binding (picrotoxin site): inhibits TBPS binding at the picrotoxin site
opening frequency of the channels (GABAA channels): decreasing the opening frequency of the channels

CC(=O)[C@H]1CC[C@H]2[C@@H]3CCC4=CC(=O)CC[C@]4(C)[C@H]3CC[C@]12C [progesterone]
usefulness for treating premenstrual syndrome [13]: often useful

picrotoxin
opening frequency of the channels (GABAA channels): decreasing the opening frequency of the channels
